Experimental data published in patent US20160102317A1, “PLANTS HAVING INCREASED TOLERANCE TO HERBICIDES” (BASF SE, priority 2013, published 2016).
Where “and” joins values, the source holds several entries; their conditions need not be identical. Identical values can stand only once.

Tests used:
[1] = molecular target: T1, Hordeum HPPD (SEQ ID NO:2), wild-type (Hordeum vulgare, UniProt O48604, A164G/R146V/R147D/R148G); assay: HPPD activity assay (HGA by HPLC), wild-type enzyme characterization; format: biochemical
T1 construct: His (N); made in house; host or cells: E. coli BL21 (DE3)
T1 sequence (O48604 whole entry R146V/R147D/R148G/A164G): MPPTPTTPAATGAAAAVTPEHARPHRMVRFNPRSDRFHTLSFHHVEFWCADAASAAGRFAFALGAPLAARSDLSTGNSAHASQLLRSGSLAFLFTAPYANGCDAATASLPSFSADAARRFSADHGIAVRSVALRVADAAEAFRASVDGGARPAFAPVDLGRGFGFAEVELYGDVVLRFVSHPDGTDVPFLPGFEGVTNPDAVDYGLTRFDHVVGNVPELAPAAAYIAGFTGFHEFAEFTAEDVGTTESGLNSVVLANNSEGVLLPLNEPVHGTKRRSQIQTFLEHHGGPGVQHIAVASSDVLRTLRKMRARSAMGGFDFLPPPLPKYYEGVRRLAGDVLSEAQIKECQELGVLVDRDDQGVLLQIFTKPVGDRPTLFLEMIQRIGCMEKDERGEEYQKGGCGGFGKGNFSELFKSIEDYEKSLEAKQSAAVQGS
Description: (§1) HPPD produces homogentisic acid and CO2 from 4-hydroxyphenylpyruvate (4-HPP) and 02. The activity assay for HPPD is based on the analysis of homogentisic acid by reversed phase HPLC. The assay mixture can contain 150 mM potassium phosphate buffer pH 7.0, 50 mM L-ascorbic acid, 100 μM Catalase (Sigma-Aldrich), 1 μM FeSO4 and 0.2 units of purified HPPD enzyme in a total volume of 505 μl. 1 unit is defined as the amount of enzyme that is required to produce 1 nmol of HGA per minute at 20° C.
(§2) After a preincubation of 30 min the reaction is started by adding 4-HPP to a final concentration of 0.05 mM. The reaction is allowed to proceed for 45 min at room temperature. The reaction is stopped by the addition of 50 μl of 4.5 M phosphoric acid. The sample is filtered using a […] pore size PVDF filtration device.
(§3) 5 μl of the cleared sample is analyzed on an UPLC HSS T3 column (particle size 1.8 μm, dimensions 2.1×50 mm; Waters) by isocratic elution using 90% 20 mM NaH2PO4 pH 2.2, 10% methanol (v/v).
(§4) HGA is detected electrochemically at 750 mV (mode: DC; polarity: positive) and quantified by integrating peak areas (Empower software; Waters).
(§5) Inhibitors are dissolved in DMSO (dimethylsulfoxide) to a concentration of 0.5 mM. From this stock solution serial five-fold dilutions are prepared in DMSO, which are used in the assay. The respective inhibitor solution accounts for 1% of the assay volume. […] Activities are normalized by setting the uninhibited enzyme activity to 100%. IC50 values are calculated using non-linear regression.
Using methods which are described in the above examples or well known in the art, purified, recombinant wild-type HPPD enzymes are characterized with respect to their kinetic properties and sensitivity towards HPPD inhibiting herbicides. Apparent michaelis constants (Km) and maximal reaction velocities (Vmax) are calculated by non-linear regression with the software GraphPad Prism 5 (GraphPad Software, La Jolla, USA) using a substrate inhibition model. […] Weighted means (by standard error) of Km and IC50 values are calculated from at least three independent experiments.
(§6) Field performance of the HPPD enzyme, which is used as a herbicide tolerance trait, may depend not only on its lack of sensitivity towards HPPD inhibiting herbicides but also on its activity. To assess the potential performance of a herbicide tolerance trait a tolerance index (TI) is calculated using the following formula: […]
(§7) Easy comparison and ranking of each trait is enabled by normalizing tolerance indexes on Arabidopsis wild-type HPPD.

[2] = test system: Wild-type Arabidopsis plants; assay: Arabidopsis growth inhibition in 48-well plates, tolerance factor; format: in vivo, Arabidopsis thaliana; conditions: plant growth IC50 relative to wild-type plants; Wild-type line
Description: Depending on the species, the plants are kept at 10-25° C. or 20-35° C. The test period extends over 3 weeks. During this time, the plants are tended and their response to the individual treatments is evaluated. Herbicide injury evaluations are taken at 2 and 3 weeks after treatment. Plant injury is rated on a scale of 0 to 9, 0 being no injury and 9 being complete death. Tolerance to HPPD-inhibiting herbicides can also be assessed in Arabidopsis. In this case transgenic Arabidopsis thaliana plants are assayed for improved tolerance to HPPD-inhibiting herbicides in 48-well plates. Seeds are surface sterilized by stirring for 5 min in ethanol+water (70+30 by volume), rinsing one time with ethanol+water (70+30 by volume) and two times with a sterile, deionized water. The seeds are resuspended in 0.1% agar dissolved in water (w/v). Four to five seeds per well are plated on solid nutrient medium consisting of half-strength Murashige Skoog nutrient solution, pH 5.8 (Murashige and Skoog (1962) Physiologia Plantarum 15: 473-497). […] Seven to ten days after seeding growth inhibition is evaluated by comparison to wild-type plants. Tolerance factor is calculated by dividing the plant growth IC50 value of transgenic plants containing a HPPD and/or HST sequence by that of wild-type plants.

[3] = molecular target: T2, Hordeum HPPD (SEQ ID: 2) F404L (Hordeum vulgare, UniProt O48604, A164G/F404L/R146V/R147D/R148G); assay: HPPD activity assay, in vitro characterization of HPPD mutants; format: biochemical; conditions: Table 16, Hordeum wild-type = 1
T2 construct: His (N); made in house; host or cells: E. coli BL21 (DE3)
T2 sequence (O48604 whole entry R146V/R147D/R148G/A164G/F404L): as the sequence (O48604 whole entry R146V/R147D/R148G/A164G) above, with F404L counted along it
Description: as §1, §2, §3, §4, §5
(§8) Purified, mutant HPPD enzymes are obtained by the methods described above. Dose response and kinetic measurements are carried out using the described HPPD activity assay. Apparent michaelis constants (Km) and maximal reaction velocities (Vmax) are calculated by non-linear regression with the software GraphPad Prism 5 (Graph Pad Software, La Jolla, USA) using a substrate inhibition model. […] Weighted means (by standard error) of Km and IC50 values are calculated from at least three independent experiments.
as §6, with “of the optimized HPPD enzyme,” for “of the HPPD enzyme,”, “herbicide tolerance trait may depend” for “herbicide tolerance trait, may depend”
as §7

[4] = molecular target: T3, Hordeum HPPD (SEQ ID: 2) R309K (Hordeum vulgare, UniProt O48604, A164G/R146V/R147D/R148G/R309K); assay: as above; format: biochemical; conditions: Table 16, Hordeum wild-type = 1
T3 construct: His (N); made in house; host or cells: E. coli BL21 (DE3)
T3 sequence (O48604 whole entry R146V/R147D/R148G/A164G/R309K): as the sequence (O48604 whole entry R146V/R147D/R148G/A164G) above, with R309K counted along it
Description: as §1, §2, §3, §4, §5, §8
as §6, with “of the optimized HPPD enzyme,” for “of the HPPD enzyme,”, “herbicide tolerance trait may depend” for “herbicide tolerance trait, may depend”
as §7

[5] = molecular target: T4, Hordeum HPPD (SEQ ID: 2) L353M, P321R, L320N (Hordeum vulgare, UniProt O48604, L320N/L353M/P321R); assay: as above; format: biochemical; conditions: Table 16, Hordeum wild-type = 1
T4 construct: His (N); made in house; host or cells: E. coli BL21 (DE3)
T4 sequence (O48604 whole entry R146V/R147D/R148G/A164G/L320N/P321R/L353M): as the sequence (O48604 whole entry R146V/R147D/R148G/A164G) above, with L320N, P321R, L353M counted along it
Description: as §1, §2, §3, §4, §5, §8
as §6, with “of the optimized HPPD enzyme,” for “of the HPPD enzyme,”, “herbicide tolerance trait may depend” for “herbicide tolerance trait, may depend”
as §7

[6] = molecular target: T5, Hordeum HPPD (SEQ ID: 2) L320H, P321A (Hordeum vulgare, UniProt O48604, L320H/P321A); assay: as above; format: biochemical; conditions: Table 16, Hordeum wild-type = 1
T5 construct: His (N); made in house; host or cells: E. coli BL21 (DE3)
T5 sequence (O48604 whole entry R146V/R147D/R148G/A164G/L320H/P321A): as the sequence (O48604 whole entry R146V/R147D/R148G/A164G) above, with L320H, P321A counted along it
Description: as §1, §2, §3, §4, §5, §8
as §6, with “of the optimized HPPD enzyme,” for “of the HPPD enzyme,”, “herbicide tolerance trait may depend” for “herbicide tolerance trait, may depend”
as §7

[7] = molecular target: T6, Hordeum HPPD (SEQ ID: 2) L353M, P321R, L320Q (Hordeum vulgare, UniProt O48604, L320Q/L353M/P321R); assay: as above; format: biochemical; conditions: Table 16, Hordeum wild-type = 1
T6 construct: His (N); made in house; host or cells: E. coli BL21 (DE3)
T6 sequence (O48604 whole entry R146V/R147D/R148G/A164G/L320Q/P321R/L353M): as the sequence (O48604 whole entry R146V/R147D/R148G/A164G) above, with L320Q, P321R, L353M counted along it
Description: as §1, §2, §3, §4, §5, §8
as §6, with “of the optimized HPPD enzyme,” for “of the HPPD enzyme,”, “herbicide tolerance trait may depend” for “herbicide tolerance trait, may depend”
as §7

[8] = molecular target: T7, Hordeum HPPD (SEQ ID: 2) S252T (Hordeum vulgare, UniProt O48604, A164G/R146V/R147D/R148G/S252T); assay: as above; format: biochemical; conditions: Table 16, Hordeum wild-type = 1
T7 construct: His (N); made in house; host or cells: E. coli BL21 (DE3)
T7 sequence (O48604 whole entry R146V/R147D/R148G/A164G/S252T): as the sequence (O48604 whole entry R146V/R147D/R148G/A164G) above, with S252T counted along it
Description: as §1, §2, §3, §4, §5, §8
as §6, with “of the optimized HPPD enzyme,” for “of the HPPD enzyme,”, “herbicide tolerance trait may depend” for “herbicide tolerance trait, may depend”
as §7

[9] = molecular target: T8, Hordeum HPPD (SEQ ID: 2) L320H (Hordeum vulgare, UniProt O48604, A164G/L320H/R146V/R147D/R148G); assay: as above; format: biochemical; conditions: Table 16, Hordeum wild-type = 1
T8 construct: His (N); made in house; host or cells: E. coli BL21 (DE3)
T8 sequence (O48604 whole entry R146V/R147D/R148G/A164G/L320H): as the sequence (O48604 whole entry R146V/R147D/R148G/A164G) above, with L320H counted along it
Description: as §1, §2, §3, §4, §5, §8
as §6, with “of the optimized HPPD enzyme,” for “of the HPPD enzyme,”, “herbicide tolerance trait may depend” for “herbicide tolerance trait, may depend”
as §7

[10] = Table 16, Hordeum HPPD variant Wild-type

SMILES | Ki [1] [nM] | TI Inhibitor 1 (normalized tolerance index) ([1]; Table 12, Hordeum HPPD, normalized to reference SEQ ID NO:53) | TI Inhibitor 1 (normalized tolerance index) [1, 10] | Tolerance factor towards Inhibitor 1 [2] | TI Inhibitor 1 (normalized tolerance index) [3] | TI Inhibitor 1 (normalized tolerance index) [4] | TI Inhibitor 1 (normalized tolerance index) [5] | TI Inhibitor 1 (normalized tolerance index) [6] | TI Inhibitor 1 (normalized tolerance index) [7] | TI Inhibitor 1 (normalized tolerance index) [8] | TI Inhibitor 1 (normalized tolerance index) [9] | TI Inhibitor 2 (normalized tolerance index) [1, 10] | Tolerance factor towards Inhibitor 2 [2] | TI Inhibitor 2 (normalized tolerance index) [3] | TI Inhibitor 2 (normalized tolerance index) [4] | TI Inhibitor 2 (normalized tolerance index) [5] | TI Inhibitor 2 (normalized tolerance index) [6] | TI Inhibitor 2 (normalized tolerance index) [7] | TI Inhibitor 2 (normalized tolerance index) [8] | TI Inhibitor 2 (normalized tolerance index) [9]
COc1no[nH]/c1=N/C(=O)c1ccc2c(c1Cl)S(=O)(=O)CCC2(C)C [Inhibitor 1, (NE)-8-chloro-N-(4-methoxy-1,2,5-oxadiazol-3-ylidene)-4,4-dimethyl-1,1-dioxo-2,3-dihydrothiochromene-7-carboxamide] | 38 | 0.9 | 1 | 1 | 2.1 | 0.4 | 0.2 | 0.5 | 1.2 | 2.4 | 0.6 | – | – | – | – | – | – | – | – | –
Cc1c(C(=O)Nc2nnnn2C)ccc2c1C(=O)C(C)(C)CS2(=O)=O [Inhibitor 2, 3,3,5-trimethyl-N-(1-methyltetrazol-5-yl)-1,1,4-trioxo-2H-thiochromene-6-carboxamide] | – | – | – | – | – | – | – | – | – | – | – | 1 | 1 | 3 and 3.1 | 2.8 | 3.5 | 3.6 | 3.5 and 3.4 | 5.9 | 4.4
